According to ChEMBL document CHEMBL5370568, “Discovery of Coixol Derivatives as Potent Anti-inflammatory Agents” (J Nat Prod, 2023):
Activity calls are given as the source filed them. The rule behind the calls is not given here.

Experiments:
[1] = tested on: RAW264.7; assay: Antiinflammatory activity in LPS-induced mouse RAW264.7 cells assessed as inhibition of NO production at 20 uM pretreated for 1 hr followed by LPS stimulation and measured after 24 hrs by griess reagent based assay relative to control; assay type: functional; settings: time 25 hrs
[2] = Cytotoxicity against mouse RAW264.7 cells incubated for 24 hrs by MTT assay; assay type: toxicity, cell-based
[3] = tested on: RAW264.7; assay: Antiinflammatory activity in LPS-induced mouse RAW264.7 cells assessed as inhibition of NO production pretreated for 1 hr followed by LPS stimulation and measured after 24 hrs by griess reagent based assay; assay type: functional, cell-based
[4] = tested on: HEK-293T; assay: Inhibition of NO production in HEK293T cells expressing iNOS assessed as effect on iNOS dimerization at 0.1 to 10 uM measured after 24 hrs by griess reagent based assay; assay type: functional, cell-based; settings: Homo sapiens, dose 0.1-10 µM
[5] = tested on: RAW264.7; assay: Antiinflammatory activity in LPS-induced mouse RAW264.7 cells assessed as inhibition of NO production by measuring downregulation of iNOS protein expression at 2 to 8 uM pretreated for 2 hr followed by LPS stimulation and measured after 24 hrs by Western blot analysis; assay type: functional, cell-based; settings: dose 2-8 µM, time 26.0 hrs
[6] = tested on: RAW264.7; assay: Inhibition of NFkappaB signaling pathway in LPS-induced mouse RAW264.7 cells assessed as reduction in IkappaBalpha phosphorylation pretreated for 2 hrs followed by LPS stimulation and measured after 10 mins by Western blot analysis; assay type: cell-based; settings: dose 0.5-2 µM, time 130.0 min
[7] = Inhibition of TNF-alpha production in LPS-induced mouse RAW264.7 cells pretreated for 1 hr followed by LPS stimulation and measured after 24 hrs by ELISA; assay type: functional, cell-based
[8] = Inhibition of IL-6 production in LPS-induced mouse RAW264.7 cells pretreated for 1 hr followed by LPS stimulation and measured after 24 hrs by ELISA; assay type: functional, cell-based
[9] = Inhibition of IL-1beta production in LPS-induced mouse RAW264.7 cells pretreated for 1 hr followed by LPS stimulation and measured after 24 hrs by ELISA; assay type: functional, cell-based
[10] = tested on: Mus musculus; assay: Antiinflammatory activity in ICR mouse model of xylene-induced auricle edema assessed as average weight of left ear at 20 mg/kg, IG pretreated for 1 hr followed by xylene addition and measured after 1 hr (reference value: 6.9 +/- 0.7 mg); assay type: functional; settings: time 2 hrs
[11] = tested on: Mus musculus; assay: Antiinflammatory activity in ICR mouse model of xylene-induced auricle edema assessed as average weight of left ear at 40 mg/kg, IG pretreated for 1 hr followed by xylene addition and measured after 1 hr (reference value: 6.9 +/- 0.7 mg); assay type: functional; settings: time 2 hrs
[12] = tested on: Mus musculus; assay: Antiinflammatory activity in ICR mouse model of xylene-induced auricle edema assessed as average weight of right ear at 20 mg/kg, IG pretreated for 1 hr followed by xylene addition and measured after 1 hr (reference value: 11.5 +/- 2.1 mg); assay type: functional; settings: time 2 hrs
[13] = tested on: Mus musculus; assay: Antiinflammatory activity in ICR mouse model of xylene-induced auricle edema assessed as average weight of right ear at 40 mg/kg, IG pretreated for 1 hr followed by xylene addition and measured after 1 hr (reference value: 11.5 +/- 2.1 mg); assay type: functional; settings: time 2 hrs
[14] = tested on: Mus musculus; assay: Antiinflammatory activity in ICR mouse model of xylene-induced auricle edema assessed as swelling degree at 20 mg/kg, IG pretreated for 1 hr followed by xylene addition and measured after 1 hr (reference value: 4.6 +/- 2 mg); assay type: functional; settings: time 2 hrs
[15] = tested on: Mus musculus; assay: Antiinflammatory activity in ICR mouse model of xylene-induced auricle edema assessed as swelling degree at 40 mg/kg, IG pretreated for 1 hr followed by xylene addition and measured after 1 hr (reference value: 4.6 +/- 2 mg); assay type: functional; settings: time 2 hrs
[16] = tested on: Mus musculus; assay: Antiinflammatory activity in ICR mouse model of xylene-induced auricle edema assessed as inhibition rate of ear swelling at 20 mg/kg, IG pretreated for 1 hr followed by xylene addition and measured after 1 hr relative to control; assay type: functional; settings: po, time 2 hrs
[17] = tested on: Mus musculus; assay: Antiinflammatory activity in ICR mouse model of xylene-induced auricle edema assessed as inhibition rate of ear swelling at 40 mg/kg, IG pretreated for 1 hr followed by xylene addition and measured after 1 hr relative to control; assay type: functional; settings: po, time 2 hrs
[18] = tested on: RAW264.7; assay: Antiinflammatory activity in LPS-induced mouse RAW264.7 cells assessed as inhibition of NO production by measuring downregulation of iNOS protein expression at 0.5 to 10 uM pretreated for 2 hr followed by LPS stimulation and measured after 24 hrs by Western blot analysis; assay type: functional, cell-based; settings: dose 0.5-10 µM, time 26.0 hrs
[19] = tested on: RAW264.7; assay: Antiinflammatory activity in LPS-induced mouse RAW264.7 cells assessed as inhibition of NO production incubated for 24 hrs in presence of LPS by griess reagent based assay; assay type: functional, cell-based; settings: RAW264.7, 24 h
[20] = Inhibition of TNF-alpha production in LPS-induced mouse RAW264.7 cells incubated for 24 hrs in presence of LPS by ELISA; assay type: functional, cell-based; settings: RAW264.7, 24 h
[21] = Inhibition of IL-6 production in LPS-induced mouse RAW264.7 cells incubated for 24 hrs in presence of LPS by ELISA; assay type: functional, cell-based; settings: RAW264.7, 24 h
[22] = Inhibition of IL-1beta production in LPS-induced mouse RAW264.7 cells incubated for 24 hrs in presence of LPS by ELISA; assay type: functional, cell-based; settings: RAW264.7, 24 h
[23] = tested on: Mus musculus; assay: Antiinflammatory activity in ICR mouse model of xylene-induced ear edema assessed as edema inhibition rate at 25 mg/kg, po pretreated for 1 hr followed by xylene addition and measured after 0.5 hr relative to control; assay type: functional; settings: time 1.5 hrs

| Structure (SMILES) | inhibition at 20 µM [1] [%] | IC50 at 24 h [2] [µM] | further results |
| --- | --- | --- | --- |
| COc1ccc2c(c1)oc(=O)n2CCNC(=O)/C=C/c1ccc(Br)o1 | 25.8 | > 100 | – |
| COc1ccc2c(c1)oc(=O)n2CCNC(=O)/C=C/c1ccccc1Cl | 10.7 | > 100 | – |
| COc1ccc2c(c1)oc(=O)n2CCNC(=O)/C=C/c1cccs1 | 36.1 | > 100 | – |
| COc1ccc2c(c1)oc(=O)n2CCNC(=O)/C=C/c1ccc(OC)c(OC)c1 | 8.9 | > 100 | – |
| COc1ccc2c(c1)oc(=O)n2CCNC(=O)/C=C/c1ccc(O)c(OC)c1 | 7.2 | > 100 | – |
| COc1ccc2c(c1)oc(=O)n2CCNC(=O)/C=C/c1ccc(Cl)cc1 | 38.3 | > 100 | – |
| O=C(/C=C/c1ccco1)NCCn1c(=O)oc2cc(Br)ccc21 | 75.3 | 68.9 | – |
| COc1ccc2c(c1)oc(=O)n2CCNC(=O)/C=C/c1ccc([N+](=O)[O-])o1 | 105 | 38.8 | IC50 [3]: 0.8 µM; inhibition [4]: inactive; Activity [5]: Active; inhibition [6]: Dose-Dependent Effect; IC50 [7]: 10.9 µM; IC50 [8]: 10.3 µM; IC50 [9]: 11.8 µM; Activity [10]: 7.2 mg; Activity [11]: 8.5 mg; Activity [12]: 9.7 mg; Activity [13]: 10.5 mg; Activity [14]: 2.4 mg; Activity [15]: 2 mg; inhibition in vivo at 20 mg/kg [16]: 47.1%; inhibition in vivo at 40 mg/kg [17]: 56.6% |
| O=C(/C=C/c1ccco1)NCCn1c(=O)oc2ccccc21 | 63.2 | > 100 | – |
| COc1ccc2c(c1)oc(=O)n2CCNC(=O)/C=C/c1ccco1 | 88.4 | > 100 | IC50 [3]: 2.4 µM; inhibition [4]: inactive; Activity [18]: Active; IC50 [7]: 7.5 µM; IC50 [8]: 8.8 µM; IC50 [9]: 11.6 µM; Activity [10]: 9.5 mg; Activity [11]: 8.1 mg; Activity [12]: 12.7 mg; Activity [13]: 11 mg; Activity [14]: 3.2 mg; Activity [15]: 3 mg; inhibition in vivo at 20 mg/kg [16]: 30.9%; inhibition in vivo at 40 mg/kg [17]: 35.3% |
| COc1ccc2c(c1)oc(=O)n2CCNC(=O)/C=C/c1ccc(C(F)(F)F)cc1 | 42 | 69.5 | – |
| COc1ccc2c(c1)oc(=O)n2CCNC(=O)c1ccco1 | 29.4 | > 100 | – |
| COc1ccc2c(c1)oc(=O)n2CCNC(=O)/C=C/c1ccc(C)cc1 | 30.2 | > 100 | – |
| COc1ccc2c(c1)oc(=O)n2CCNC(=O)/C=C/c1cccc(Cl)c1 | 5.2 | > 100 | – |
| COc1ccc2c(c1)oc(=O)n2CCNC(=O)/C=C/c1cc2ccccc2o1 | 35.1 | > 100 | – |
| COc1ccc2c(c1)oc(=O)n2CCNC(=O)/C=C/c1ccoc1 | 30.3 | > 100 | – |
| COc1ccc2c(c1)oc(=O)n2CCNC(=O)/C=C/c1ccc(O)cc1 | 45.4 | 59 | – |
| COc1ccc2c(c1)oc(=O)n2CCNC(=O)/C=C/c1ccccn1 | 42.8 | > 100 | – |
| COc1cccc(/C=C/C(=O)NCCn2c(=O)oc3cc(OC)ccc32)c1 | 9.3 | > 100 | – |
| COc1ccc2c(c1)oc(=O)n2CCNC(=O)/C=C/c1cc(OC)c(OC)c(OC)c1 | 51.1 | > 100 | IC50 [3]: 26 µM |
| COc1ccc2c(c1)oc(=O)n2CCNC(=O)/C=C/c1ccc(F)cc1 | 4.4 | > 100 | – |
| Cc1ccc(-c2cc(C(F)(F)F)nn2-c2ccc(S(N)(=O)=O)cc2)cc1 [CELECOXIB] | 62.4 | – | IC50 [3]: 21.1 µM; IC50 [7]: 12.2 µM; IC50 [8]: 13.7 µM; IC50 [9]: 14.6 µM; Activity [10]: 8.3 mg; Activity [12]: 11.6 mg; Activity [14]: 3.4 mg; inhibition in vivo at 20 mg/kg [16]: 27.4%; IC50 [19]: 17.9 µM; IC50 [20]: 41.2 µM; IC50 [21]: 36 µM; IC50 [22]: 17.9 µM; inhibition in vivo at 25 mg/kg [23]: 30.9% |
| COc1ccc2[nH]c(=O)oc2c1 [COIXOL] | 7.4 | > 100 | IC50 [7]: 31.2 µM; IC50 [8]: 48.9 µM; IC50 [9]: 66.4 µM |
| COc1ccc2oc(=O)n(CCNC(=O)/C=C/c3ccco3)c2c1 | 56.2 | > 100 | – |
| COc1ccc2c(c1)oc(=O)n2CCNC(=O)/C=C/c1ccccc1OC | 6.4 | 80.2 | – |
| COc1ccc2c(c1)oc(=O)n2CCNC(=O)/C=C/c1ccccc1 | 30.2 | > 100 | – |
| COc1ccc2c(c1)oc(=O)n2CCNC(=O)/C=C/c1ccc(C)o1 | 43.2 | > 100 | – |
| COc1ccc(/C=C/C(=O)NCCn2c(=O)oc3cc(OC)ccc32)cc1 | 45.9 | 68.8 | – |
| COc1ccc(C(C)=O)c(OCCNC(=O)/C=C/c2cc(OC)c(OC)c(OC)c2)c1 | 88.8 | – | – |
